# Assay results reported in patent US6620833B1, “Substituted benzimidazoles, production and use thereof as agents for combating parasitic protozoas” (Bayer Aktiengesellschaft, priority 1998, dated 2003).
# Columns and labels:
# Format in all cases: in vivo
# Eimeria tenella = experiment: Cage experiment on coccidiosis/chicks, E. tenella readout; details: for Efficacy against Eimeria tenella: third symbol of cell; for Efficacy against Eimeria tenella: key: 2=full action; 1=slight action; 0=inactive; D=death
# Eimeria maxima = experiment: Cage experiment on coccidiosis/chicks, E. maxima readout; details: for Efficacy against Eimeria maxima: second symbol of cell; for Efficacy against Eimeria maxima: key: 2=full action; 1=slight action; 0=inactive; D=death
# Eimeria acervulina = experiment: Cage experiment on coccidiosis/chicks, E. acervulina readout; details: for Efficacy against Eimeria acervulina: first symbol of cell; for Efficacy against Eimeria acervulina: key: 2=full action; 1=slight action; 0=inactive; D=death
# [1] = system: Eimeria acervulina, Eimeria maxima and Eimeria tenella; experiment: Cage experiment on coccidiosis/chicks, mixed experimental infection; details: for dropping scores / lesion score: assessment 0 to 6; for mortality n: dead animals/animals employed
# Protocol: 8 to 12 day-old male chicks (e.g. LSL Brinkschulte/Senden) which have been reared coccidia-free receive the compounds according to the invention (test substances) in the concentration indicated in ppm with the feed from 3 days before (day −3) infection (=a.i.) until 8 (9) days after infection (=p.i.). 3 animals are kept in each cage. One or more groups of this type are employed per dose. Infection is carried out by means of a stomach tube directly into the crop with approximately 100,000 sporulated oocysts of Eimeria acervulina and with approximately 30,000 oocysts each of E. maxima and 40,000 sporulated oocysts of E. tenella. These are highly virulent strains. The exact infection dose is adjusted so that, if possible, one of three experimentally infected untreated chicks dies due to the infection. For assessment of the efficacy, the following criteria are taken into account: weight increase from the start of the experiment to the end of the experiment, death rate due to infection, macroscopic assessment of the faeces with respect to diarrhoea and excretion of blood on days 5 and 7 p.i. (assessment 0 to 6), macroscopic assessment of the intestinal mucosa, in particular of the appendices (assessment 0 to 6) and the oocyst excretion as well as the proportion (in %) of the oocysts sporulating in the course of 24 hours. The number of oocysts in the faeces was determined with the aid of a McMaster counting chamber (see Engelbrecht and coworkers “Parasitologische Arbeitsmethoden in Medizin and Veterinärmedizin” [Parasitological Working Methods in Medicine and Veterinary Medicine], Akademie-Verlag, Berlin (1965)). The individual findings are related to the untreated non-infected control groups and a total score is calculated (cf. A. Haberkorn (1986), pp. 263 to 270 in Research in Avian Coccidiosis ed L. R. McDougald, L. P. Joyner, P. L. Long, Proceedings of the Georgia Coccidiosis Conference, Nov. 18-20, 1985. Athens/Georgia USA).
# In the column “ppm”, the concentration of the active compound employed in the feed is indicated in ppm.
# In the column “mortality” the percentage of the dead animals is indicated under % and the number of dead animals/animals employed in the experiment is indicated under n.
# In the column “weight % of not inf. control” the ratio of the weight of the treated animals to the weight of the non-infected control group is indicated.
# In the columns “dropping scores”, “lesion score” and “oocyst control”, individual details of the action are given.
# In the column “% efficacy”, the total score is assessed; 0% means no action, 100% means full action.
structure (smiles),measurement,setting,value
CCN(Cn1c(C(F)(F)F)nc2c(Br)cc3c(c21)OC(F)(F)C(F)(F)O3)C(=O)OC [Ex. 1],oocyst in % of inf. control ten.,"Eimeria tenella; Table 1, 7.5 ppm in feed",1%
same,oocyst in % of inf. control ten.,"Eimeria tenella; Table 1, 10 ppm in feed",1%
same,oocyst in % of inf. control ten.,"Eimeria tenella; Table 2, 1 ppm in feed",97%
same,oocyst in % of inf. control ten.,"Eimeria tenella; Table 2, 2.5 ppm in feed",55%
same,oocyst in % of inf. control ten.,"Eimeria tenella; Table 2, 5 ppm in feed",11%
same,oocyst in % of inf. control ten.,"Eimeria tenella; Table 3, 5 ppm in feed",30%
same,oocyst in % of inf. control ten.,"Eimeria tenella; Table 3, 7.5 ppm in feed",1%
same,oocyst in % of inf. control ten.,"Eimeria tenella; Table 3, 10 ppm in feed",1%
same,Efficacy against Eimeria tenella,"Eimeria tenella; Table 4, dose 2.5 ppm",1
same,Efficacy against Eimeria tenella,"Eimeria tenella; Table 4, dose 5 ppm",2
same,Efficacy against Eimeria tenella,"Eimeria tenella; Table 4, dose 10 ppm",2
same,oocyst in % of inf. control max.,"Eimeria maxima; Table 1, 7.5 ppm in feed",0%
same,oocyst in % of inf. control max.,"Eimeria maxima; Table 1, 10 ppm in feed",0%
same,oocyst in % of inf. control max.,"Eimeria maxima; Table 2, 1 ppm in feed",100%
same,oocyst in % of inf. control max.,"Eimeria maxima; Table 2, 2.5 ppm in feed",100%
same,oocyst in % of inf. control max.,"Eimeria maxima; Table 2, 5 ppm in feed",100%
same,oocyst in % of inf. control max.,"Eimeria maxima; Table 3, 5 ppm in feed",0%
same,oocyst in % of inf. control max.,"Eimeria maxima; Table 3, 7.5 ppm in feed",0%
same,oocyst in % of inf. control max.,"Eimeria maxima; Table 3, 10 ppm in feed",0%
same,Efficacy against Eimeria maxima,"Eimeria maxima; Table 4, dose 2.5 ppm",1
same,Efficacy against Eimeria maxima,"Eimeria maxima; Table 4, dose 5 ppm",2
same,Efficacy against Eimeria maxima,"Eimeria maxima; Table 4, dose 10 ppm",2
same,oocyst in % of inf. control ac.,"Eimeria acervulina; Table 1, 7.5 ppm in feed",3%
same,oocyst in % of inf. control ac.,"Eimeria acervulina; Table 1, 10 ppm in feed",0%
same,oocyst in % of inf. control ac.,"Eimeria acervulina; Table 2, 1 ppm in feed",49%
same,oocyst in % of inf. control ac.,"Eimeria acervulina; Table 2, 2.5 ppm in feed",19%
same,oocyst in % of inf. control ac.,"Eimeria acervulina; Table 2, 5 ppm in feed",1%
same,oocyst in % of inf. control ac.,"Eimeria acervulina; Table 3, 5 ppm in feed",6%
same,oocyst in % of inf. control ac.,"Eimeria acervulina; Table 3, 7.5 ppm in feed",3%
same,oocyst in % of inf. control ac.,"Eimeria acervulina; Table 3, 10 ppm in feed",0%
same,Efficacy against Eimeria acervulina,"Eimeria acervulina; Table 4, dose 2.5 ppm",1
same,Efficacy against Eimeria acervulina,"Eimeria acervulina; Table 4, dose 5 ppm",2
same,Efficacy against Eimeria acervulina,"Eimeria acervulina; Table 4, dose 10 ppm",2
same,% efficacy tot.,"[1]; Table 1, 7.5 ppm in feed",65%
same,mortality %,"[1]; Table 1, 7.5 ppm in feed",0%
same,oocyst in % of inf. control tot.,"[1]; Table 1, 7.5 ppm in feed",1.3%
same,weight % of not inf. control,"[1]; Table 1, 7.5 ppm in feed",76%
same,dropping scores,"[1]; Table 1, 7.5 ppm in feed",6
same,lesion score,"[1]; Table 1, 7.5 ppm in feed",5.3
same,mortality n,"[1]; Table 1, 7.5 ppm in feed",0/3
same,% efficacy tot.,"[1]; Table 1, 10 ppm in feed",75%
same,mortality %,"[1]; Table 1, 10 ppm in feed",0%
same,oocyst in % of inf. control tot.,"[1]; Table 1, 10 ppm in feed",0%
same,weight % of not inf. control,"[1]; Table 1, 10 ppm in feed",84%
same,dropping scores,"[1]; Table 1, 10 ppm in feed",6
same,lesion score,"[1]; Table 1, 10 ppm in feed",3.3
same,mortality n,"[1]; Table 1, 10 ppm in feed",0/3
same,% efficacy tot.,"[1]; Table 2, 1 ppm in feed",36%
same,mortality %,"[1]; Table 2, 1 ppm in feed",33%
same,oocyst in % of inf. control tot.,"[1]; Table 2, 1 ppm in feed",82%
same,weight % of not inf. control,"[1]; Table 2, 1 ppm in feed",31%
same,dropping scores,"[1]; Table 2, 1 ppm in feed",6
same,lesion score,"[1]; Table 2, 1 ppm in feed",6
same,mortality n,"[1]; Table 2, 1 ppm in feed",1/3
same,% efficacy tot.,"[1]; Table 2, 2.5 ppm in feed",36%
same,mortality %,"[1]; Table 2, 2.5 ppm in feed",33%
same,oocyst in % of inf. control tot.,"[1]; Table 2, 2.5 ppm in feed",58%
same,weight % of not inf. control,"[1]; Table 2, 2.5 ppm in feed",42%
same,dropping scores,"[1]; Table 2, 2.5 ppm in feed",4-6
same,lesion score,"[1]; Table 2, 2.5 ppm in feed",6
same,mortality n,"[1]; Table 2, 2.5 ppm in feed",1/3
same,% efficacy tot.,"[1]; Table 2, 5 ppm in feed",90%
same,mortality %,"[1]; Table 2, 5 ppm in feed",0%
same,oocyst in % of inf. control tot.,"[1]; Table 2, 5 ppm in feed",37%
same,weight % of not inf. control,"[1]; Table 2, 5 ppm in feed",110%
same,dropping scores,"[1]; Table 2, 5 ppm in feed",1
same,lesion score,"[1]; Table 2, 5 ppm in feed",0
same,mortality n,"[1]; Table 2, 5 ppm in feed",0/3
same,% efficacy tot.,"[1]; Table 3, 5 ppm in feed",45%
same,mortality %,"[1]; Table 3, 5 ppm in feed",0%
same,oocyst in % of inf. control tot.,"[1]; Table 3, 5 ppm in feed",12%
same,weight % of not inf. control,"[1]; Table 3, 5 ppm in feed",72%
same,dropping scores,"[1]; Table 3, 5 ppm in feed",6
same,lesion score,"[1]; Table 3, 5 ppm in feed",6
same,mortality n,"[1]; Table 3, 5 ppm in feed",0/3
same,% efficacy tot.,"[1]; Table 3, 7.5 ppm in feed",65%
same,mortality %,"[1]; Table 3, 7.5 ppm in feed",0%
same,oocyst in % of inf. control tot.,"[1]; Table 3, 7.5 ppm in feed",1.3%
same,weight % of not inf. control,"[1]; Table 3, 7.5 ppm in feed",76%
same,dropping scores,"[1]; Table 3, 7.5 ppm in feed",6
same,lesion score,"[1]; Table 3, 7.5 ppm in feed",5.3
same,mortality n,"[1]; Table 3, 7.5 ppm in feed",0/3
same,% efficacy tot.,"[1]; Table 3, 10 ppm in feed",75%
same,mortality %,"[1]; Table 3, 10 ppm in feed",0%
same,oocyst in % of inf. control tot.,"[1]; Table 3, 10 ppm in feed",0%
same,weight % of not inf. control,"[1]; Table 3, 10 ppm in feed",84%
same,dropping scores,"[1]; Table 3, 10 ppm in feed",6
same,lesion score,"[1]; Table 3, 10 ppm in feed",3.3
same,mortality n,"[1]; Table 3, 10 ppm in feed",0/3
